The record followed here is publication PMC9837035 (Nature Communications, 2023).

One experiment addresses T1, ASH1L (Homo sapiens, UniProt Q9NR48).
T1 construct: purchased Reaction Biology
Nature of the experiment: Radioisotope-based methyltransferase assay (selectivity). In kind it is biochemical. The note with it: ASH1L, read-out: IC50.

For another experiment, the target named is T2, SET1b (Homo sapiens, UniProt Q9UPS6).
T2 construct: purchased Reaction Biology
The description is as above. In kind it is biochemical.

For a further experiment, the target named is T3, PRMT3 (Homo sapiens, UniProt O60678).
T3 construct: purchased Reaction Biology
T3 sequence (O60678 whole entry): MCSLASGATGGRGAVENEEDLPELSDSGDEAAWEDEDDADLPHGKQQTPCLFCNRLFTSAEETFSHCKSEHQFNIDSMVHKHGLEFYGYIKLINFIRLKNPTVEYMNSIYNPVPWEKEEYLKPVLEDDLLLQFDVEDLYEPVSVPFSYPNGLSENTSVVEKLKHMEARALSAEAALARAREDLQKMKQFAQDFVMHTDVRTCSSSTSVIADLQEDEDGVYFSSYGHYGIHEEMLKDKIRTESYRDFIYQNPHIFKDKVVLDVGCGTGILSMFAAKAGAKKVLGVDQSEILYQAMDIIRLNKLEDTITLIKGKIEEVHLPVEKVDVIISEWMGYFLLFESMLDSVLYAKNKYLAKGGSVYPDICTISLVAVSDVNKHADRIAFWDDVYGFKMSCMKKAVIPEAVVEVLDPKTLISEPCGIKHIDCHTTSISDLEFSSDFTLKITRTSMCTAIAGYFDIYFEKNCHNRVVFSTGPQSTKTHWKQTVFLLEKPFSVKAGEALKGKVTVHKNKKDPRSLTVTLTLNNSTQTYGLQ
The experiment is described as above. In kind it is biochemical.

A further experiment addresses T4, G9a SET domain (Homo sapiens, UniProt Q96KQ7).
T4 construct: the human G9a SET domain (residues 913–1193) was synthesized using the E. coli cell-free synthesis method; made in house; host or cells: E. coli cell-free synthesis
T4 sequence (Q96KQ7 913-1193): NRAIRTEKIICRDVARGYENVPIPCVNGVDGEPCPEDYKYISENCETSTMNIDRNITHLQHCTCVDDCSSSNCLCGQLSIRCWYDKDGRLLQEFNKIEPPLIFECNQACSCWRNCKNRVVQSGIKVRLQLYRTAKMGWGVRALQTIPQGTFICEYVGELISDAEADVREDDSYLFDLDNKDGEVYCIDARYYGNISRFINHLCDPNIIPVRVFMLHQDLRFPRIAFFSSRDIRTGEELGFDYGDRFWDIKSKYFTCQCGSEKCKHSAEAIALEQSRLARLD
Nature of the experiment: Surface plasmon resonance (SPR). The class given is binding. Here is the method: For crystal structure analysis, the human G9a SET domain (residues 913–1193) was synthesized using the E. coli cell-free synthesis method[48],[49] and purified in the same manner as described previously, except that the final size-exclusion column chromatography using HiLoad Superdex 200 16/60 (GE Healthcare) was equilibrated with 20 mM Tris-HCl buffer (pH 8.0) containing 400 mM NaCl. […] Crystals were grown by the hanging drop method at 293 K, where the sample solution was mixed with an equal volume of a reservoir solution containing 100 mM Bis-Tris propane (pH 7.4), 200 mM sodium formate, 10% ethylene glycol, and 25% PEG 3350. The harvested crystals were coated with Paratone-N oil (Hampton Research) before being flash-cooled in liquid nitrogen. Diffraction data were collected at the X06DA beamline of the Swiss Light Source, Paul Scherrer Institut (Villigen, Switzerland), and were processed and scaled with XDS[51], AIMLESS[52], and other CCP4 programs. The structure of G9a with UNC0638 (PDB ID: 3RJW)[23] was used for the initial phase determination by the molecular replacement method with Phaser[53]. The topology and parameter file for the inhibitor was generated with eLBOW[54] from SMILES strings. Structure refinement was carried out with Phenix[55] and manual model building using COOT[56]. Crystallographic statistics are summarized in Supplementary Table 3.
SPR was performed using a Biacore T200 (Cytiva) and Series S Sensorchip SA (Cytiva, BR100531) at the temperature of 25 °C. A solution of PBS, 0.005% TWEEN20 (Sigma, P9416), 0.5 mM TCEP (Nacalai Tesque, 06342-21), and 2% DMSO (Sigma, 276855) was filtered with a 0.22-μm filter and used as the running buffer. Kinetic measurements were carried out at a flow rate of 30 μL/min, and the association and dissociation phases were monitored for 120 s and 120–300 s, respectively. The G9a SET domain was biotinylated by using NHS-PEG4-Biotin (Thermo, 39259), and captured to flow cells 2, 3, and 4 with immobilization levels of ~2300 RU. No specific treatment was applied to the reference surface (flow cell 1). To prevent oxidation of the immobilized protein, a solution containing 1 μM ZnCl2 and 5 mM TCEP was injected at a flow rate of 10 μL/min for 60 s before each set of kinetic measurements. The extra wash command was executed after each measurement cycle with 50% DMSO aqueous solution. To correct for bulk responses, solvent correction was performed once after all kinetics runs by using running buffer containing 1–3% DMSO. The sensorgrams obtained from the three flow cells were analyzed individually by Biacore T200 Evaluation Software (Cytiva). The dissociation constant (KD) and binding kinetic parameters were calculated by a curve fit to a built-in 1:1 binding model.
In general terms: In SPR one partner is held on a chip, and binding of the other changes the refractive index at the surface.

A further experiment addresses PRMT8 (Homo sapiens, UniProt Q9NR22). In words: Radioisotope-based methyltransferase assay (selectivity).
The target of another experiment is T5, SUV420H1TV2 (Homo sapiens, UniProt Q4FZB7).
T5 construct: purchased Reaction Biology
T5 sequence (Q4FZB7 1-393 isoform Q4FZB7-2): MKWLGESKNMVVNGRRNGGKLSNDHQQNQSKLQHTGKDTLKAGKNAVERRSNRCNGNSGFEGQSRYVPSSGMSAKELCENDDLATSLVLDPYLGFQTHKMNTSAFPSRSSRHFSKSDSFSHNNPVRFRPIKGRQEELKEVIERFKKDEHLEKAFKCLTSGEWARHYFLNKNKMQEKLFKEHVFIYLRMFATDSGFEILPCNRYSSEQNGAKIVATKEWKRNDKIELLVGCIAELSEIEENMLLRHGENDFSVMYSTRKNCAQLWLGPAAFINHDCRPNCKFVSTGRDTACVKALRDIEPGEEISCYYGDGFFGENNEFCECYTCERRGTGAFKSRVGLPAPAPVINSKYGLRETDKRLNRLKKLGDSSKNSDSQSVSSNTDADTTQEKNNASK
Described as above. The class given is biochemical.

Another experiment has as its target T6, SUV39H1 (Homo sapiens, UniProt O43463).
T6 construct: purchased Reaction Biology
The experiment is described as above. The class given is biochemical.

For experiment [1], the system named is β- and γ-globin mRNAs in CD34+-derived cells. Nature of the experiment: RT-qPCR of β- and γ-globin in CD34+-derived cells. In kind it is cell-based, human. Here is the method:
HUDEP-2 cells and HiDEP-1 cells were grown in Stemline II Hematopoietic Stem Cell Expansion Medium (Sigma) supplemented with 50 ng/mL recombinant stem cell factor (SCF; R&D systems), 3 IU/mL recombinant erythropoietin (EPO; Kyowa Kirin), 1 μM dexamethasone (Dex; Sigma), and 1 μg/mL doxycycline (Sigma). A total of 1 × 10^5 human CD34^+ progenitor cells derived from bone marrow or peripheral blood (Lonza) were cultured on 35-mm dishes (BD Falcon) in StemSpan SFEMII medium with 50 ng/mL SCF, 5 IU/mL EPO, and 10 ng /mL interleukin 3 (IL-3; R&D systems). The medium was changed on day 4 to SCF, EPO, and 1 μM Dex, and the cells were transferred to 60-mm dishes (BD Falcon). Seven days after the onset of differentiation, cells were counted and 1 × 10^6 cells were re-plated on 100-mm dishes (BD Falcon) with SCF, EPO, and Dex. The rat myoblast cell line H9c2, HEK293T, and PLAT-E cells were maintained in Dulbecco’s modified Eagle’s medium (Thermo Fisher Scientific) supplemented with 10% heat-inactivated fetal bovine serum (FBS) and penicillin/streptomycin. All cells were cultured at 37 °C under 5% CO2.
Total cellular RNA was prepared using the Tissue Total RNA Mini Kit (FAVORGEN), and cDNA was synthesized using ReverTra Ace Master Mix (TOYOBO). Expression of target genes was analyzed using THUNDERBIRD SYBR qPCR Mix (TOYOBO) on a CFX Connect Real Time System (Bio-Rad). The qPCR data were acquired on CFX Maestro (Bio-Rad). Primers are listed in Supplementary Table 10. GAPDH was used as a reference. Primers were purchased from INTEGRATED DNA TECHNOLOGIES or FASMAC.
For orientation: Quantitative PCR measures a nucleic acid by following its amplification.

The target in the next experiment is PRMT6 (Homo sapiens, UniProt Q96LA8). Nature of the experiment: biochemical.
Chain of PRMT6 (Q96LA8 whole entry): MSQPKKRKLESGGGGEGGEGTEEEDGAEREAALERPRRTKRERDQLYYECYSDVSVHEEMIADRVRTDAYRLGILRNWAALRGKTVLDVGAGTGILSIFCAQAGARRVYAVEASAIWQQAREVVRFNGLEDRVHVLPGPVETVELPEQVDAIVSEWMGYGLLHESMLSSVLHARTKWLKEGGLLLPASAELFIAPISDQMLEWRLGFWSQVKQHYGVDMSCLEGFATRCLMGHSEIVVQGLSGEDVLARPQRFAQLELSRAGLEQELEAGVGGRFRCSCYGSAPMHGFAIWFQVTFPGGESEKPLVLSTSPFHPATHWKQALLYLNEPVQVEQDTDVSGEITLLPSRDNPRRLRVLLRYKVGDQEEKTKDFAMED
Setting [2] is: single run, read-out: Dissociation constant (Kd).
[3] abbreviates: CD34+-derived cells, day 10, 10 μM.

pIC50, pKd: −log10 of the molar value. Values joined by “and” are separate entries in the source; they are usually repeats but may differ in a detail not shown here. Identical values can stand only once. Like-named read-outs stand apart in the source and are kept apart here. Some results are limits rather than exact numbers.

T6 sequence (O43463 whole entry): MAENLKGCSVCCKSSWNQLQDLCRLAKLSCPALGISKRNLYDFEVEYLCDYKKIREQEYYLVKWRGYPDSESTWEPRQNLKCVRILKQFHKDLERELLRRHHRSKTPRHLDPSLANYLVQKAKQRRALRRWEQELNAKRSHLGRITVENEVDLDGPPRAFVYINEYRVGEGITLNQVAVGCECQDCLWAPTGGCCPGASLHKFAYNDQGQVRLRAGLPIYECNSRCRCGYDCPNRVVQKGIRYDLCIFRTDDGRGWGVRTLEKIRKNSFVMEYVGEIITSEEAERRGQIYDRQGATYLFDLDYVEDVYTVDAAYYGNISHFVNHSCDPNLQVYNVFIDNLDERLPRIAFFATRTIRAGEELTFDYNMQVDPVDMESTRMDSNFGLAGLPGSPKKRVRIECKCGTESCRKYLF
Chain of PRMT8 (Q9NR22 whole entry): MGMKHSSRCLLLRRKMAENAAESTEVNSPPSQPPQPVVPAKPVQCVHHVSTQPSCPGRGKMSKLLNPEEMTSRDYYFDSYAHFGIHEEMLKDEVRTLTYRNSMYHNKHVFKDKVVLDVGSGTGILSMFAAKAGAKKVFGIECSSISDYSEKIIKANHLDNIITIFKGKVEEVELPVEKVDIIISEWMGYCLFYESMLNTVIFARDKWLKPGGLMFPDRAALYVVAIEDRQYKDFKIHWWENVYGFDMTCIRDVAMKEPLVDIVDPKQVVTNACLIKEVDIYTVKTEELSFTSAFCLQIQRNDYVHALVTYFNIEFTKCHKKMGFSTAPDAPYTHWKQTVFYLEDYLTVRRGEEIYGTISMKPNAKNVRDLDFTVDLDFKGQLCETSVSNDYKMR

Consider `Cc1c(C(=O)NC(CCC2CC2)C(=O)Nc2ccc(C#N)cc2)[nH]c2c1C(=O)CC(C)(C)C2` (stereo not drawn) [RK-701], for which the pIC50 (in general, the negative decadic logarithm of the IC50, by convention in mol/L) was 4.10 on ASH1L (1 μM SAM); 4.09 and 4.11 on ASH1L (RK-701 in duplicate); 4.31 against SET1b (1 μM SAM); 4.32 and 4.30 against SET1b (RK-701 in duplicate); < 4.00 at PRMT3 (PRMT3, 1 μM SAM); < 4.00 against PRMT3 (PRMT3, RK-701 in duplicate). The pIC50 was < 4.00 at PRMT8; < 4.00 on SUV420H1TV2 (SUV420H1TV2, 1 μM SAM); < 4.00 on SUV420H1TV2 (SUV420H1TV2, RK-701 in duplicate); < 4.00 on SUV39H1 (SUV39H1, 1 μM SAM); < 4.00 at SUV39H1 (SUV39H1, RK-701 in duplicate). Also, the “binding to G9a by SPR” value on G9a SET domain was “reversible binding”. Moreover, the pKd (in general, the negative decadic logarithm of the Kd, by convention in mol/L) at G9a SET domain (absence of SAM, read-out: Kd) is 6.12; at G9a SET domain (earlier SPR conditions, peer review file, read-out: Kd before re-analysis), 5.62; on G9a SET domain (setting [2]), 6.13 and 6.14 and 6.12. The “γ-globin mRNA expression” value in experiment [1] (primary human CD34+ hematopoietic cells) is recorded as “significantly increased”.
Turning to `Cc1c(C(=O)N[C@H](CCC2CC2)C(=O)Nc2ccc(C#N)cc2)[nH]c2c1C(=O)CC(C)(C)C2` [RK-0133114], the “binding to G9a by SPR” value on G9a SET domain is reported as “failed to detect the binding”. Besides, the pKd is < 4.70 at G9a SET domain (mean of three kinetics runs, read-out: KD) and < 4.70 at G9a SET domain (setting [2]).
As for `NC(=O)NO` [Hydroxyurea, hydroxyurea], in [1] (setting [3]), the “Relative expression of β-globin mRNA” value was 1.124 and 0.7862 and 0.5724; the “Relative expression of γ-globin mRNA” value was 2.644 and 2.524 and 1.672.
On to `Nc1ncnc2c1ncn2[C@@H]1O[C@H](CSCC[C@H](N)C(=O)O)[C@@H](O)[C@H]1O` [SAH, S-(5'-Adenosyl)-L-homocysteine, reference compound], for which the pIC50 against PRMT6 was 6.39; on SET1b (1 μM SAM), 5.28; against SET1b (RK-701 in duplicate) it was 5.28; against PRMT3 (PRMT3, 1 μM SAM), 5.62; against PRMT3 (PRMT3, RK-701 in duplicate) it was 5.61; against SUV420H1TV2 it was 3.90.
